Data: patent publication US9186318B2, “Quinolyl-containing hydroxamic acid compound and preparation method thereof, and pharmaceutical composition containing this compound and use thereof” (Beijing Konruns Pharmaceutical Co., Ltd, priority 2011, dated 2015)

Key:
Experiment in all cases: KinomeScan 96-kinase panel
Format in all cases: binding
Conditions in all cases: compound concentration 1000 nM
PCTK1 = PCTK1 (Homo sapiens (Human), UniProt Q00536)
Source text: (§1) The details of the screening technology were described in Fabian, M. A. et al, Nat., Biotechnol. 2005, 23, 329 and Karaman, M. W. et al, Nat., Biotechnol. 2008, 26, 127. From the above representative results, it can be seen that the compounds of the present invention have potent inhibitory activities on kinases including ALK, AXL, VEGFR2, PDGFR-α, PDGFR-β, c-KIT, Flt3, MEK1, MEK2, CSF1R, EPHA2, EPHA2, MKNK2, SRC, TIE2 and their mutants. Accordingly, the compounds of the present invention can be used for the treatment of diseases caused by abnormal activities of these kinases, e.g., cancer, psoriasis, hepatic cirrhosis, diabetes, diseases involving angiogenesis, eye diseases, immune system diseases, cardiovascular diseases, and so forth.

AXL = AXL (Homo sapiens (Human), UniProt P30530)
Source text: as §1

AURKB = AURKB (Homo sapiens (Human), UniProt Q96GD4)
Source text: as §1

PRKCE = PRKCE (Homo sapiens (Human), UniProt Q02156)
Source text: as §1

PIM1 = PIM1 (Homo sapiens (Human), UniProt P11309)
Source text: as §1

PDGFRB = PDGFRB (Homo sapiens (Human), UniProt P09619)
Source text: as §1

KIT (V559D, T670I) = KIT (V559D, T670I) (Homo sapiens (Human), UniProt P10721, T670I/V559D)
Source text: as §1

[1] = biological target: RSK2 (Kin.Dom.1-N-terminal) (Homo sapiens (Human), UniProt P51812)
Source text: as §1

ACVR1B = ACVR1B (Homo sapiens (Human), UniProt P36896)
Source text: as §1

FLT3 = FLT3 (Homo sapiens (Human), UniProt P36888)
Source text: as §1

ERBB2 = ERBB2 (Homo sapiens (Human), UniProt P04626)
Source text: as §1

BRAF = BRAF (Homo sapiens (Human), UniProt P15056)
Source text: as §1

ULK2 = ULK2 (Homo sapiens (Human), UniProt Q8IYT8)
Source text: as §1

CDK3 = CDK3 (Homo sapiens (Human), UniProt Q00526)
Source text: as §1

SNARK = SNARK (Homo sapiens (Human), UniProt Q9H093)
Source text: as §1

FGFR2 = FGFR2 (Homo sapiens (Human), UniProt P21802)
Source text: as §1

DYRK1B = DYRK1B (Homo sapiens (Human), UniProt Q9Y463)
Source text: as §1

PIM3 = PIM3 (Homo sapiens (Human), UniProt Q86V86)
Source text: as §1

PLK1 = PLK1 (Homo sapiens (Human), UniProt P53350)
Source text: as §1

ADCK3 = ADCK3 (Homo sapiens (Human), UniProt Q8NI60)
Source text: as §1

PAK4 = PAK4 (Homo sapiens (Human), UniProt O96013)
Source text: as §1

KIT = KIT (Homo sapiens (Human), UniProt P10721)
Source text: as §1

CSF1R = CSF1R (Homo sapiens (Human), UniProt P07333)
Source text: as §1

ALK = ALK (Homo sapiens (Human), UniProt Q9UM73)
Source text: as §1

FAK = FAK (Homo sapiens (Human), UniProt Q05397)
Source text: as §1

AKT1 = AKT1 (Homo sapiens (Human), UniProt P31749)
Source text: as §1

MKNK1 = MKNK1 (Homo sapiens (Human), UniProt Q9BUB5)
Source text: as §1

BTK = BTK (Homo sapiens (Human), UniProt Q06187)
Source text: as §1

MAP3K4 = MAP3K4 (Homo sapiens (Human), UniProt Q9Y6R4)
Source text: as §1

JNK3 = JNK3 (Homo sapiens (Human), UniProt P53779)
Source text: as §1

[2] = biological target: ABL1(T315I)-phosphorylated (Homo sapiens (Human), UniProt P00519, T315I)
Source text: as §1

EGFR(L858R) = EGFR(L858R) (Homo sapiens (Human), UniProt P00533, L858R)
Source text: as §1

YANK3 = YANK3 (Homo sapiens (Human), UniProt Q86UX6)
Source text: as §1

MEK2 = MEK2 (Homo sapiens (Human), UniProt P36507)
Source text: as §1

p38-alpha = p38-alpha (Homo sapiens (Human), UniProt Q16539)
Source text: as §1

IKK-alpha = IKK-alpha (Homo sapiens (Human), UniProt O15111)
Source text: as §1

EGFR = EGFR (Homo sapiens (Human), UniProt P00533)
Source text: as §1

BTK, sequence (Q06187 whole entry): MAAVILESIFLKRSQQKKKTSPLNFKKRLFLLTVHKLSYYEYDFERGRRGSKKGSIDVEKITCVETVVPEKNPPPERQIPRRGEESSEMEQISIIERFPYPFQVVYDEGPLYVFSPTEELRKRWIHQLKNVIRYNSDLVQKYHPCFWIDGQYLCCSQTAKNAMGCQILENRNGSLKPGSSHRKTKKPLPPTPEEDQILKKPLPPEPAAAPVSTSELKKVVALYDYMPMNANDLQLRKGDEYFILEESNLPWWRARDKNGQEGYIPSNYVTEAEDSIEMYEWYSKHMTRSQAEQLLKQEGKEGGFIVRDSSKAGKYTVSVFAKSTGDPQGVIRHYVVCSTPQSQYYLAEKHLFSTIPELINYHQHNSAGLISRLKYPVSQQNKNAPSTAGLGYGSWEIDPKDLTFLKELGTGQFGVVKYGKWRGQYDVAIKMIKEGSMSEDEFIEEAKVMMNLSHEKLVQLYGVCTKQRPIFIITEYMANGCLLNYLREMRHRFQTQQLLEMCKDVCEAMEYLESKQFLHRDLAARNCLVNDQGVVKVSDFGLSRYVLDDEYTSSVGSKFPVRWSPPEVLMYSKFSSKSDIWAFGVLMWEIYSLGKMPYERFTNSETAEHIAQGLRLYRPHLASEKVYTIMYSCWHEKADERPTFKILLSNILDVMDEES
FLT3, sequence (P36888 27-993): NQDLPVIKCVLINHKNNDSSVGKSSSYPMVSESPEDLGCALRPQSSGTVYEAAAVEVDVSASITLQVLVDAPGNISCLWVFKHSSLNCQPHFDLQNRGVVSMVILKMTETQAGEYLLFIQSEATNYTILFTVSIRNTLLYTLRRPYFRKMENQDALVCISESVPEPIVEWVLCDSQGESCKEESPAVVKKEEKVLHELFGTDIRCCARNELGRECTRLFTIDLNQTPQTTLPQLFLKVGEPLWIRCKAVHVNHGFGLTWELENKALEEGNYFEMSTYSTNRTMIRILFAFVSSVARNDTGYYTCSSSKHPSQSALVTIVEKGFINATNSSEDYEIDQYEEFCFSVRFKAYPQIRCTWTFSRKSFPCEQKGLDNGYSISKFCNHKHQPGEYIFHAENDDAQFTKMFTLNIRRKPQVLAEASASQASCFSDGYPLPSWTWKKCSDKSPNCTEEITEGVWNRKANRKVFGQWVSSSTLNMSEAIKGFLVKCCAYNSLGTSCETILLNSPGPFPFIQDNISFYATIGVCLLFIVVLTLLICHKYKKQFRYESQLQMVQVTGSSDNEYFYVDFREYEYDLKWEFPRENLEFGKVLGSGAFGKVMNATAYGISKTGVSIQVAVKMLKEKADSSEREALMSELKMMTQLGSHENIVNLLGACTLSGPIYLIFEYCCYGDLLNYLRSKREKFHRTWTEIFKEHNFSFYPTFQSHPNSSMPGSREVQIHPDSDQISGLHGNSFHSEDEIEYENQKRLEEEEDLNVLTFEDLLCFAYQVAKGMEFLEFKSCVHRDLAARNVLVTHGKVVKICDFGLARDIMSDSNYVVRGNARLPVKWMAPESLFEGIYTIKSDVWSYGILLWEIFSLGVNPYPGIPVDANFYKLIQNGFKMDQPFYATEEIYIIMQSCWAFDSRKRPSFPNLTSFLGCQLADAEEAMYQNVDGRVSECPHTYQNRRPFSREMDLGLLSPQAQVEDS
ACVR1B, sequence (P36896 24-505): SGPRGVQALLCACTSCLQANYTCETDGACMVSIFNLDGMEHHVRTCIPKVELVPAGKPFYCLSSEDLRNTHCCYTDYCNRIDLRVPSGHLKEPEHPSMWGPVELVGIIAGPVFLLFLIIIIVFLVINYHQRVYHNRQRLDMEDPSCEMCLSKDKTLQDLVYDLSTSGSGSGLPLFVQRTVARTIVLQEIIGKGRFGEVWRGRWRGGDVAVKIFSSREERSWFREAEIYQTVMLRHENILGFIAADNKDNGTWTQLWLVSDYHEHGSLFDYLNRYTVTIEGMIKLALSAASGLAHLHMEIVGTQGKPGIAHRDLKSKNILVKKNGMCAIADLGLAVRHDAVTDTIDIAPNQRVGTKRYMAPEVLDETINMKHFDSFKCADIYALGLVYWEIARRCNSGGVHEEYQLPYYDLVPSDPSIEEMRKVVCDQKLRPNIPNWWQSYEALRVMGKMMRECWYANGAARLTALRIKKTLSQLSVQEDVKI
CDK3, sequence (Q00526 whole entry): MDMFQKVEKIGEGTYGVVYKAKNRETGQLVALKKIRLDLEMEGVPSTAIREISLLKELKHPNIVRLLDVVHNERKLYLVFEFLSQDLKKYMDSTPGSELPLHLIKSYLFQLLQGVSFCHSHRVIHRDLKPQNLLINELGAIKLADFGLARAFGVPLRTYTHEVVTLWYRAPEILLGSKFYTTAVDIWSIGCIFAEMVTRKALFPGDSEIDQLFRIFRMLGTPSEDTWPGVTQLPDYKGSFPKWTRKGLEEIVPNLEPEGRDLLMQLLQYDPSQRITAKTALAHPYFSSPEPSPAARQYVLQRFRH
AURKB, sequence (Q96GD4 whole entry): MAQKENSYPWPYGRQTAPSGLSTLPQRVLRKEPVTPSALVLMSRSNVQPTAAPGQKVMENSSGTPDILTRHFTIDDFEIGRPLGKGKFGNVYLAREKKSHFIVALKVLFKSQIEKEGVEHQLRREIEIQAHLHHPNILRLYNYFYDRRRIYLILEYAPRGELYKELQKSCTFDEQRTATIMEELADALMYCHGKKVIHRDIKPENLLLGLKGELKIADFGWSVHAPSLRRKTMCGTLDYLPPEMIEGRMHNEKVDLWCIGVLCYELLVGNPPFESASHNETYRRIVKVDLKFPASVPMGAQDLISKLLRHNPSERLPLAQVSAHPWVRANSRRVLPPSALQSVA
ULK2, sequence (Q8IYT8 whole entry): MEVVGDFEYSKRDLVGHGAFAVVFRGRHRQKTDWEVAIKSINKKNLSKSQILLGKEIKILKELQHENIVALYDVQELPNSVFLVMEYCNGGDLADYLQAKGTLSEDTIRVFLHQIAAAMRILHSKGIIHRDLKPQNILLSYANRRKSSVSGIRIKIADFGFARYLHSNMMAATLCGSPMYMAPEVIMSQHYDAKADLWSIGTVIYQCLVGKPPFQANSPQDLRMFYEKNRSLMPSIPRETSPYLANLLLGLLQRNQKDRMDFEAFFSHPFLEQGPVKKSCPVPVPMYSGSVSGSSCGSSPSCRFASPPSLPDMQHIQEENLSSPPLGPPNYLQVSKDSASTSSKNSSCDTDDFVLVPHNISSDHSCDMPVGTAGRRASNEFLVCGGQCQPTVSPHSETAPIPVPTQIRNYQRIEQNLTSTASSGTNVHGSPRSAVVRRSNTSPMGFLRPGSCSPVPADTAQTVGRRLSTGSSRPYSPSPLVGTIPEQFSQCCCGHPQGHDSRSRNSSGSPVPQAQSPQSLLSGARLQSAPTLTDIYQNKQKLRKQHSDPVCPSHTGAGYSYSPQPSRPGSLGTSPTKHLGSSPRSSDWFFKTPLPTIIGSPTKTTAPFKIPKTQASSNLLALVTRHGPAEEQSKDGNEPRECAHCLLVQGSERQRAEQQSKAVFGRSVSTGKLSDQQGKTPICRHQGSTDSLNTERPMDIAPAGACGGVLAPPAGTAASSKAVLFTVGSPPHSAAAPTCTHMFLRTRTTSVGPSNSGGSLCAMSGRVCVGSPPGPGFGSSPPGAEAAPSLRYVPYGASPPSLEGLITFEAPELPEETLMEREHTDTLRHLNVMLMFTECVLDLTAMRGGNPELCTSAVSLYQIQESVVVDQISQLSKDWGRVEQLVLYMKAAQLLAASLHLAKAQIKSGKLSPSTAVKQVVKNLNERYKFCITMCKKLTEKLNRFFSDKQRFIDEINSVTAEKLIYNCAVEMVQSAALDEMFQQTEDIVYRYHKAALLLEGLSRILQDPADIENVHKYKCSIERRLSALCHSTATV
RSK2 (Kin.Dom.1-N-terminal), sequence (P51812 68-327 limits assumed): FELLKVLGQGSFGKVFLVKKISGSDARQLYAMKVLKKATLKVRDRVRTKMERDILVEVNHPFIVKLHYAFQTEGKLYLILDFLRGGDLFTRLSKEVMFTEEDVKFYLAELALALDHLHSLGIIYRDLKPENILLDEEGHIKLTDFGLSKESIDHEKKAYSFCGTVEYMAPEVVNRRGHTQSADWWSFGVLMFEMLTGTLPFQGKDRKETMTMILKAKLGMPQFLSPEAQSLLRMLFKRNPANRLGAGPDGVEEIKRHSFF
PLK1, sequence (P53350 whole entry): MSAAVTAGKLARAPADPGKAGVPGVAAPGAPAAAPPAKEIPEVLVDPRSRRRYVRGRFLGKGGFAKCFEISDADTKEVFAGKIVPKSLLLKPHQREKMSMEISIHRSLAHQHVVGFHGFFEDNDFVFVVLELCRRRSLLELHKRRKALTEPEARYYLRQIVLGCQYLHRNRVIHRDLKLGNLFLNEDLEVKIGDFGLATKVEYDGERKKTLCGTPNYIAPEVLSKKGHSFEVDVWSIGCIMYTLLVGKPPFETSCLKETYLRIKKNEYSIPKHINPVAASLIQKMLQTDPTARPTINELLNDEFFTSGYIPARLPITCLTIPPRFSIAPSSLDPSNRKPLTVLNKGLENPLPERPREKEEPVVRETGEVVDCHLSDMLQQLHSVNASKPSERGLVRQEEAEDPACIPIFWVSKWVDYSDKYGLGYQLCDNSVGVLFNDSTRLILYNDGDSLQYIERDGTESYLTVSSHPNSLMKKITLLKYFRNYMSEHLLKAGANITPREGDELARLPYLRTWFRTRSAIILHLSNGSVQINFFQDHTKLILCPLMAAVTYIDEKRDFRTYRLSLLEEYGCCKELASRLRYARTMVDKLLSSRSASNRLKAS
PIM1, sequence (P11309 whole entry): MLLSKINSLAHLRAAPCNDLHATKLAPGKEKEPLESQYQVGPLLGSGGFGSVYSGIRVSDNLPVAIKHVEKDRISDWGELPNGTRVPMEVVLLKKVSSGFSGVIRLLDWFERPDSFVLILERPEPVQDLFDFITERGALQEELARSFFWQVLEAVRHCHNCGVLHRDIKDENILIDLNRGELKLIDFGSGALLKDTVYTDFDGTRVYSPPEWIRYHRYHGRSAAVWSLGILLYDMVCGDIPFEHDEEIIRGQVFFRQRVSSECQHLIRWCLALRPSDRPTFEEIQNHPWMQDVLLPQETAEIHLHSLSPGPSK

SMILES: COc1cc2c(Oc3ccc(NC(=O)C4(C(=O)Nc5ccc(F)cc5)CC4)cc3F)ccnc2cc1OCCCCCC(=O)NO [Example 13, N1′-[3-fluoro-4-[[7-[6-(hydroxyamino)-6-oxohexyloxy]-6-methoxy-4-quinolyl]oxy]phenyl]-N1-(4-fluorophenyl)cyclopropane-1,1-dicarboxamide]
- % Ctrl@1000 nM (PCTK1): 100 % Ctrl
- % Ctrl@1000 nM (AXL): 1.2 % Ctrl
- % Ctrl@1000 nM (AURKB): 7 % Ctrl
- % Ctrl@1000 nM (PRKCE): 100 % Ctrl
- % Ctrl@1000 nM (PIM1): 100 % Ctrl
- % Ctrl@1000 nM (PDGFRB): 0 % Ctrl
- % Ctrl@1000 nM (KIT (V559D, T670I)): 0.15 % Ctrl
- % Ctrl@1000 nM [1]: 96 % Ctrl
- % Ctrl@1000 nM (ACVR1B): 90 % Ctrl
- % Ctrl@1000 nM (FLT3): 0.85 % Ctrl
- % Ctrl@1000 nM (ERBB2): 15 % Ctrl
- % Ctrl@1000 nM (BRAF): 87 % Ctrl
- % Ctrl@1000 nM (ULK2): 100 % Ctrl
- % Ctrl@1000 nM (CDK3): 100 % Ctrl
- % Ctrl@1000 nM (SNARK): 91 % Ctrl
- % Ctrl@1000 nM (FGFR2): 65 % Ctrl
- % Ctrl@1000 nM (DYRK1B): 63 % Ctrl
- % Ctrl@1000 nM (PIM3): 100 % Ctrl
- % Ctrl@1000 nM (PLK1): 100 % Ctrl
- % Ctrl@1000 nM (ADCK3): 100 % Ctrl
- % Ctrl@1000 nM (PAK4): 100 % Ctrl
- % Ctrl@1000 nM (KIT): 0 % Ctrl
- % Ctrl@1000 nM (CSF1R): 0 % Ctrl
- % Ctrl@1000 nM (ALK): 1.2 % Ctrl
- % Ctrl@1000 nM (FAK): 12 % Ctrl
- % Ctrl@1000 nM (AKT1): 100 % Ctrl
- % Ctrl@1000 nM (MKNK1): 8.8 % Ctrl
- % Ctrl@1000 nM (BTK): 2.6 % Ctrl
- % Ctrl@1000 nM (MAP3K4): 100 % Ctrl
- % Ctrl@1000 nM (JNK3): 100 % Ctrl
- % Ctrl@1000 nM [2]: 19 % Ctrl
- % Ctrl@1000 nM (EGFR(L858R)): 5.7 % Ctrl
- % Ctrl@1000 nM (YANK3): 84 % Ctrl
- % Ctrl@1000 nM (MEK2): 1.8 % Ctrl
- % Ctrl@1000 nM (p38-alpha): 43 % Ctrl
- % Ctrl@1000 nM (IKK-alpha): 100 % Ctrl
- % Ctrl@1000 nM (EGFR): 6.8 % Ctrl
